Assay results as given in patent US20230116972A1, “CD38 MODULATORS AND METHODS OF USE THEREOF” (Cytokinetics, Inc., priority 2021, published 2023).

What was measured:
human CD38 = molecular target: T1, human CD38 (Homo sapiens, UniProt P28907); assay: human recombinant CD38 enzyme assay (hydrolysis of NAD+); type: biochemical; conditions: human recombinant CD38, 0.4 nM enzyme, 62.5 μM NAD+; read-out: hCD38 BioChem IC50
T1 sequence (P28907 1-300): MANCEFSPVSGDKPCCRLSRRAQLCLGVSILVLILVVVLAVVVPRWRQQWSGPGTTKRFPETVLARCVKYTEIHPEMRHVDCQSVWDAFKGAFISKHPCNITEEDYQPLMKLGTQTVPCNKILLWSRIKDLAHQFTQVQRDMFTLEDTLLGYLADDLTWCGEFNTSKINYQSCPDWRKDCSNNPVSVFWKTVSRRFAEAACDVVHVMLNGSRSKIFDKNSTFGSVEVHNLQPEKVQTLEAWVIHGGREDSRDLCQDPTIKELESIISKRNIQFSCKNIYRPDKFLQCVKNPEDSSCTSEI
Method: (§1) Compounds described herein were assayed for their ability to inhibit the hydrolysis of NAD+ by the protein CD38. The human and mouse recombinant enzyme assays measure the inhibition of the enzyme activity by compounds using recombinant enzymes and substrates in a buffered cell-free system. The assay conditions closely mimic cellular environments. Dose responses were measured using an assay to detect the hydrolysis of NAD+. All experiments were performed in the 384-well format. […] Enzyme reactions were initiated with the addition of 10 μL of a solution containing NAD+ substrate. Subsequent detection of remaining NAD+ was determined by first converting NAD+ to NADH using alcohol dehydrogenase, then using the resulting NADH to reduce resazurine to the fluorescent product resorufin. […] Following an incubation of 60 min at ambient temperature, 10 μL of 120 mM ethanol+20 U/ml alcohol dehydrogenase+30 mM semicarbazide+0.03 mM CD38 inhibitor in 50 mM HEPES, pH 7.5, 0.2 mg/ml BSA, was added and incubated at ambient temperature for 15 min. Then 10 μl 0.32 mM NaOH was added to stop the ADH reaction (plates incubated at ambient temperature for 15 min), followed by 30 μL of 0.05 mM resazurine+1000 mU/ml Diaphorase in 200 mM Tris-HCl, pH 7.7 for 15 min at ambient temperature. The plates were read for fluorescence (Excitation/Emission=540 nm/590 nm) using an EnVision plate reader. […] Note that, in Table 4, the “Compound No” corresponds to the compound numbers in Table 1.

mouse CD38 = molecular target: T2, mouse CD38 (Mus musculus, UniProt P56528); assay: mouse recombinant CD38 enzyme assay (hydrolysis of NAD+); type: biochemical; conditions: read-out: mCD38 BioChem IC50
T2 sequence (P56528 1-304): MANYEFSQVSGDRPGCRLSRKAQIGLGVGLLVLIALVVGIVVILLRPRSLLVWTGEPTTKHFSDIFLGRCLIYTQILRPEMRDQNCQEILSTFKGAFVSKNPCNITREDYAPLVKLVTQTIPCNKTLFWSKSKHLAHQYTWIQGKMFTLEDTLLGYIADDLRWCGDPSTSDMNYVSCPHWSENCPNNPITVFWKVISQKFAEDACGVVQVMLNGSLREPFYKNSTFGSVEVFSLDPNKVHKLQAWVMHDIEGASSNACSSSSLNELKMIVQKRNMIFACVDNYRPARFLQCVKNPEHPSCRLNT
Method: as §1

IC50 (human CD38) | IC50 (mouse CD38) | SMILES
761 nM | 198 nM | CO[C@H]1C[C@H](NC(=O)c2nccc(-n3ccnc3)n2)C1 [Compound 313, 4-(1H-imidazol-1-yl)-N-((1r,3r)-3-methoxycyclobutyl)pyrimidine-2-carboxamide]
56 nM | 16 nM | CO[C@H]1CC[C@H](NC(=O)c2cc(C3CCC3)nc(-n3ccnc3)n2)CC1 [Compound 184, 6-cyclobutyl-2-(1H-imidazol-1-yl)-N-((1r,4r)-4-methoxycyclohexyl)pyrimidine-4-carboxamide]
639 nM | 158 nM | C[C@H]1CC[C@H](NC(=O)c2ccnc(-c3cncs3)n2)CC1 [Compound 112, N-((1r,4r)-4-methylcyclohexyl)-2-(thiazol-5-yl)pyrimidine-4-carboxamide]
1730 nM | 135 nM | CO[C@H]1CC[C@H](NC(=O)c2cc(C)cc(-c3cncs3)n2)CC1 [Compound 133, N-(4-methoxycyclohexyl)-4-methyl-6-(thiazol-5-yl)picolinamide]
417 nM | 46.9 nM | COCCO[C@H]1CC[C@H](NC(=O)c2nccc(-c3cncn3C)n2)C1 [Compound 344, N-((1S,3S)-3-(2-methoxyethoxy)cyclopentyl)-4-(1-methyl-1H-imidazol-5-yl)pyrimidine-2-carboxamide]
5 nM | 9.8 nM | Cn1cncc1-c1ccnc(C(=O)Nc2ccc(OC3CCC(F)(F)CC3)nc2)n1 [Compound 330, N-(6-((4,4-difluorocyclohexyl)oxy)pyridin-3-yl)-4-(1-methyl-1H-imidazol-5-yl)pyrimidine-2-carboxamide]
1260 nM | 494 nM | O=C(Nc1ccc(C(F)(F)F)nc1)c1cc(C(F)(F)F)nc(-c2cncs2)n1 [Compound 115, 2-(thiazol-5-yl)-6-(trifluoromethyl)-N-(6-(trifluoromethyl)pyridin-3-yl)pyrimidine-4-carboxamide]
1060 nM | 4990 nM | O=C(Nc1ccc(C(F)F)nc1)c1nccc(-c2cncs2)n1 [Compound 150, N-(6-(difluoromethyl)pyridin-3-yl)-4-(thiazol-5-yl)pyrimidine-2-carboxamide]
369 nM | 118 nM | Cn1cncc1-c1ccnc(C(=O)N[C@@H]2CC[C@@H](O)C2)n1 [Compound 302, N-((1R,3R)-3-hydroxycyclopentyl)-4-(1-methyl-1H-imidazol-5-yl)pyrimidine-2-carboxamide]
107 nM | 11.3 nM | CO[C@H]1CC[C@H](NC(=O)c2nc(-c3cncn3C)cc(C(F)F)n2)CC1 [Compound 350, 4-(difluoromethyl)-N-((1r,4r)-4-methoxycyclohexyl)-6-(1-methyl-1H-imidazol-5-yl)pyrimidine-2-carboxamide]
3.4 nM | 1.4 nM | Cc1cnc(-c2cncn2C)nc1C(=O)Nc1ccc(C(F)(F)F)nc1 [Compound 326, 5-methyl-2-(1-methyl-1H-imidazol-5-yl)-N-(6-(trifluoromethyl)pyridin-3-yl)pyrimidine-4-carboxamide]
12.4 nM | 5.4 nM | Cn1cncc1-c1nc(C(=O)N[C@H]2CC[C@H](OC(F)(F)F)CC2)cc(C2CCOCC2)n1 [Compound 334, 2-(1-methyl-1H-imidazol-5-yl)-6-(tetrahydro-2H-pyran-4-yl)-N-((1r,4r)-4-(trifluoromethoxy)cyclohexyl)pyrimidine-4-carboxamide]
676 nM | 267 nM | COCCO[C@@H]1CC[C@@H](NC(=O)c2nccc(-c3cncn3C)n2)C1 [Compound 351, N-((1R,3R)-3-(2-methoxyethoxy)cyclopentyl)-4-(1-methyl-1H-imidazol-5-yl)pyrimidine-2-carboxamide]
414 nM | 90.8 nM | CO[C@H]1C[C@H](NC(=O)c2nccc(-c3cncn3C)n2)C1 [Compound 297, N-((1r,3r)-3-methoxycyclobutyl)-4-(1-methyl-1H-imidazol-5-yl)pyrimidine-2-carboxamide]
949 nM | 218 nM | CC(C)O[C@H]1C[C@H](NC(=O)c2nccc(-c3cncn3C)n2)C1 [Compound 320, N-((1r,3r)-3-isopropoxycyclobutyl)-4-(1-methyl-1H-imidazol-5-yl)pyrimidine-2-carboxamide]
20.8 nM | 4.2 nM | COCCO[C@H]1CC[C@H](NC(=O)c2cc(C3CCOCC3)nc(-c3cncn3C)n2)C1 [Compound 353, N-((1S,3S)-3-(2-methoxyethoxy)cyclopentyl)-2-(1-methyl-1H-imidazol-5-yl)-6-(tetrahydro-2H-pyran-4-yl)pyrimidine-4-carboxamide]
569 nM | 166 nM | CO[C@H]1CC[C@H](NC(=O)c2ccnc(-c3cncs3)n2)CC1 [Compound 113, N-((1r,4r)-4-methoxycyclohexyl)-2-(thiazol-5-yl)pyrimidine-4-carboxamide]
11.9 nM | 6.3 nM | Cn1cncc1-c1ncc(F)c(C(=O)N[C@H]2CC[C@H](OC(F)(F)F)CC2)n1 [Compound 340, 5-fluoro-2-(1-methyl-1H-imidazol-5-yl)-N-((1r,4r)-4-(trifluoromethoxy)cyclohexyl)pyrimidine-4-carboxamide]
761 nM | 28 nM | O=C(N[C@H]1CC[C@H](CO)CC1)c1cc(C2CC2)nc(-c2cncs2)n1 [Compound 141, 6-cyclopropyl-N-((1r,4r)-4-(hydroxymethyl)cyclohexyl)-2-(thiazol-5-yl)pyrimidine-4-carboxamide]
34 nM | 10.7 nM | CO[C@H]1CC[C@H](NC(=O)c2nc(-c3cncn3C)ncc2Cl)CC1 [Compound 329, 5-chloro-N-((1r,4r)-4-methoxycyclohexyl)-2-(1-methyl-1H-imidazol-5-yl)pyrimidine-4-carboxamide]
312 nM | 66 nM | O=C(Nc1ccc(C(F)(F)F)nc1)c1cc(C2CC2)nc(-c2cncs2)n1 [Compound 109, 6-cyclopropyl-2-(thiazol-5-yl)-N-(6-(trifluoromethyl)pyridin-3-yl)pyrimidine-4-carboxamide]
1.8 nM | 1.5 nM | Cn1cncc1-c1ncc(F)c(C(=O)Nc2ccc(OC(F)F)nc2)n1 [Compound 338, N-(6-(difluoromethoxy)pyridin-3-yl)-5-fluoro-2-(1-methyl-1H-imidazol-5-yl)pyrimidine-4-carboxamide]
1270 nM | 244 nM | O=C(N[C@H]1CC[C@H](O)C1)c1nccc(-n2ccnc2)n1 [Compound 304, N-((1S,3S)-3-hydroxycyclopentyl)-4-(1H-imidazol-1-yl)pyrimidine-2-carboxamide]
133 nM | 32.2 nM | Cc1cnc(-c2cncn2C)nc1C(=O)N[C@H]1CC[C@H](O)CC1 [Compound 321, 5-Methyl-2-(3-methylimidazol-4-yl)-N-[(1r,4r)-4-hydroxycyclohexyl]pyrimidine-4-carboxamide]
4.3 nM | 10 nM | COc1ccc(NC(=O)c2nccc(-c3cncn3C)n2)cn1 [Compound 356, N-(6-methoxypyridin-3-yl)-4-(1-methyl-1H-imidazol-5-yl)pyrimidine-2-carboxamide]
7 nM | 2 nM | Cn1cncc1-c1nc(C(=O)Nc2ccc(C(F)F)nc2)cc(C2CCC2)n1 [Compound 183, 6-cyclobutyl-N-(6-(difluoromethyl)pyridin-3-yl)-2-(1-methyl-1H-imidazol-5-yl)pyrimidine-4-carboxamide]
35 nM | 9 nM | Cn1cncc1-c1nc(C(=O)N[C@H]2CC[C@H](C(F)F)CC2)cc(C(C)(C)O)n1 [Compound 177, N-((1r,4r)-4-(difluoromethyl)cyclohexyl)-6-(2-hydroxypropan-2-yl)-2-(1-methyl-1H-imidazol-5-yl)pyrimidine-4-carboxamide]
961 nM | 531 nM | COc1cc(-n2ccnc2)nc(C(=O)N[C@H]2CC[C@H](OC)CC2)n1 [Compound 208, 4-(1H-imidazol-1-yl)-6-methoxy-N-((1r,4r)-4-methoxycyclohexyl)pyrimidine-2-carboxamide]
